Results as given in patent publication US20240400553A1, “AMINE BASED MATRIPTASE 2 INHIBITORS AND USES THEREOF” (Disc Medicine, Inc., priority 2023, published 2024).
pKi: −log10 of the molar value. Read-outs that look alike come from different tables or passages of the source.

Biological target: T1, Human Recombinant Matriptase 2 (Homo sapiens, UniProt Q8IU80)
T1 construct: made in house
T1 sequence (Q8IU80 1-811): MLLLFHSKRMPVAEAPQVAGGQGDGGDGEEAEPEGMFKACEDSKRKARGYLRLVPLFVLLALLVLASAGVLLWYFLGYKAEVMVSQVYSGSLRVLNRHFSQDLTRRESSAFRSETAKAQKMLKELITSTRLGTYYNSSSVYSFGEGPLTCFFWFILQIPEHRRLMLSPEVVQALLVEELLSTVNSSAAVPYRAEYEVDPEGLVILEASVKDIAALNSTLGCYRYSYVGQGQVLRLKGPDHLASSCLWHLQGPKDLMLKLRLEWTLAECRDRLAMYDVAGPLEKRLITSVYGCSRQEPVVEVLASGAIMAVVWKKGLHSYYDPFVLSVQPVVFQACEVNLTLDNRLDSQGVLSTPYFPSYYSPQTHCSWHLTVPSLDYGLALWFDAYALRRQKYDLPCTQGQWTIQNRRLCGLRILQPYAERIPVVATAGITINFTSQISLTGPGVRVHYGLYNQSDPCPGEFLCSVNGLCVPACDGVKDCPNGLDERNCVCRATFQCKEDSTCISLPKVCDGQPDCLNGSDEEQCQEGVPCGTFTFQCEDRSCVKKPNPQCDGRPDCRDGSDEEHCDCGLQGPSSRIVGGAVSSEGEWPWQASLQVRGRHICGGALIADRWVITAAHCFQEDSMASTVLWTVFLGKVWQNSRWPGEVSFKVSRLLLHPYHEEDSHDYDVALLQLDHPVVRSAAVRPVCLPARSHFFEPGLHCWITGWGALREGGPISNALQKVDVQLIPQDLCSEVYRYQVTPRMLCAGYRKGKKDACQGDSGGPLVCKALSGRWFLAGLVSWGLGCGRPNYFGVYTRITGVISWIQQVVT
Test: Matriptase 2 inhibition, fluorescence based assay (Method I)
Assay type: biochemical
Procedure, shortened: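 In-house recombinant enzyme (3.5 nM), preincubated 30 min with compound, then Boc-Gln-Ala-Arg-AMC substrate (62 μM) in 50 mM Tris pH 7.5, 150 mM NaCl, 0.01% gelatin, 1% DMSO, 25 °C. Fluorescence (Ex 360/Em 480 nm) read 60 min after substrate; IC50 from variable-slope sigmoidal fit of % inhibition.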

[1] = Table A, Ki of Matriptase-2, read-out: Mat-2 Ki
[2] = Table A, Ki of Matriptase-2 given as class symbols, read-out: Mat-2 Ki
[3] = Table B, Human Recombinant Matriptase 2, 3.5 nM enzyme, 62 μM substrate, 30 mins preincubation, read-out: Mean Ki

pKi [1] | pKi [2] | SMILES | further results
≥ 7.00 | – | CN1CCN(CCOC(=O)c2cc3ccc(CN)nc3n2Cc2cc(NS(=O)(=O)Cc3ccsc3)cc3ccccc23)CC1 [Compound 161, 2-(4-methylpiperazin-1-yl)ethyl 6-(aminometh-yl)-1-({3-[(thiophen-3-yl)methanesulfonamido]-naphthalen-1-yl}meth-yl)-1H-pyrrolo[2,3-b]-pyridine-2-carboxylate] | –
– | 6.30 to 7.00 | NCc1ccc2cc(C(=O)O)n(Cc3cc(NS(=O)(=O)Cc4ccccn4)cc4ccccc34)c2n1 [Compound 222, 6-(aminomethyl)-1-({3-[(pyridin-2-yl)methane-sulfonamido]naphthalen-1-yl}methyl)-1H-pyr-rolo[2,3-b]pyridine-2-carboxylic acid] | –
– | 6.30 to 7.00 | NCc1ccc2cc(C(=O)O)n(Cc3cc(NS(=O)(=O)Cc4cncnc4)cc4ccccc34)c2n1 [Compound 231, 6-(aminomethyl)-1-({3-[(pyrimidin-5-yl)methane-sulfonamido]naphthalen-1-yl}methyl)-1H-pyr-rolo[2,3-b]pyridine-2-carboxylic acid] | –
≥ 7.00 | – | Cn1ccnc1CNC(=O)c1cc2ccc(CN)nc2n1Cc1cc(NS(=O)(=O)Cc2ccsc2)cc2ccccc12 [Compound 165] | –
– | 5.52 to 6.30 | CN1CCC(COC(=O)c2cc3ccc(CN)nc3n2Cc2cc(N[S@@+]([O-])Cc3ccccc3)cc3ccccc23)CC1 (racemic) [Compound 367] | –
≥ 7.00 | – | Cn1cncc1COC(=O)c1cc2ccc(CN)nc2n1Cc1cc(NS(=O)(=O)Cc2ccsc2)cc2ccccc12 [Compound 155, (1-methyl-1H-imidazol-5-yl)methyl 6-(amino-methyl)-1-({3-[(thiophen-3-yl)methanesulfon-amido]naphthalen-1-yl}-methyl)-1H-pyrrolo[2,3-b]pyridine-2-carboxylate] | –
≥ 7.00 | – | CN1CC[C@H](COC(=O)c2cc3ccc(CN)nc3n2Cc2cc(NS(=O)(=O)Cc3ccccc3)cc3ccccc23)CC1=O (racemic) [Compound 30, rac-[(4R)-1-methyl-2-oxopiperidin-4-yl]meth-yl 6-(aminomethyl)-1-{[3-(phenylmethane-sulfonamido)naphthalen-1-yl]methyl}-1H-pyr-rolo[2,3-b]pyridine-2-carboxylate] | –
≥ 7.00 | – | NCc1ccc2cc(C(=O)OC[C@H]3CNCCO3)n(Cc3cc(NS(=O)(=O)Cc4ccccc4)cc4ccccc34)c2n1 [Compound 36] | –
– | – | CN1CCC(CCOC(=O)c2cc3ccc(CN)nc3n2Cc2cc(NS(=O)(=O)Cc3ccsc3)cc3c2CCCC3)CC1=O (centres unmarked) [Compound 2.2] | pKi [3]: 6.30 to 7.00
≥ 7.00 | – | Cc1cccc(C)c1CS(=O)(=O)Nc1cc(Cn2c(C(=O)OCCN3CCN(C)CC3)cc3ccc(CN)nc32)c2ccccc2c1 [Compound 186] | –
– | 5.52 to 6.30 | CN(C)CCOC(=O)c1cc2ccc(CN)nc2n1Cc1cc(NS(=O)(=O)CC2CCNCC2)cc2ccccc12 [Compound 271, 2-(dimethylamino)ethyl 6-(aminomethyl)-1-({3-[(piperidin-4-yl)meth-anesulfonamido]naph-thalen-1-yl}methyl)-1H-pyrrolo[2,3-b]pyridine-2-carboxylate] | –
≥ 7.00 | – | COCCN1CCC(COC(=O)c2cc3ccc(CN)nc3n2Cc2cc(NS(=O)(=O)Cc3c(C)cccc3C)cc3ccccc23)CC1 [Compound 192, [1-(2-methoxyethyl)-piperidin-4-yl]methyl 6-(aminomethyl)-1-({3-[(2,6-dimethylphenyl)-methanesulfonamido]-naphthalen-1-yl}meth-yl)-1H-pyrrolo[2,3-b]-pyridine-2-carboxylate] | –
– | 5.52 to 6.30 | CNCCOC(=O)c1cc2ccc(CN)nc2n1Cc1cc(NS(=O)(=O)CC2CCNCC2)cc2ccccc12 [Compound 278, 2-(methylamino)ethyl 6-(aminomethyl)-1-({3-[(piperidin-4-yl)methane-sulfonamido]naphthalen-1-yl}methyl)-1H-pyr-rolo[2,3-b]pyridine-2-carboxylate] | –
≥ 7.00 | – | CC[C@@H](COC(=O)c1cc2ccc(CN)nc2n1Cc1cc(NS(=O)(=O)Cc2ccccc2)cc2ccccc12)N(C)C (racemic) [Compound 54, rac-(2R)-2-(dimethyl-amino)butyl 6-(amino-methyl)-1-{[3-(phenyl-methanesulfonamido)-naphthalen-1-yl]methyl}-1H-pyrrolo[2,3-b]pyr-idine-2-carboxylate] | –
≥ 7.00 | – | CN1CC[C@H](CNC(=O)c2cc3ccc(CN)nc3n2Cc2cc(NS(=O)(=O)Cc3ccccc3)cc3ccccc23)CC1=O (racemic) [Compound 37, rac-6-(aminomethyl)-N-{[(4R)-1-methyl-2-oxo-piperidin-4-yl]methyl}-1-{[3-(phenylmethane-sulfonamido)naphthalen-1-yl]methyl}-1H-pyr-rolo[2,3-b]pyridine-2-carboxamide] | –
6.30 to 7.00 | – | NCc1ccc2cc(C(=O)OCc3cn(CC(F)(F)F)cn3)n(Cc3cc(NS(=O)(=O)Cc4ccccc4)cc4ccccc34)c2n1 [Compound 101, [1-(2,2,2-trifluoroethyl)-1H-imidazol-4-yl]methyl 6-(aminomethyl)-1-{[3-(phenylmethanesulfon-amido)naphthalen-1-yl]-methyl}-1H-pyrrolo[2,3-b]pyridine-2-carboxylate] | –
– | ≥ 7.00 | NCc1ccc2cc(C(=O)O)n(Cc3cc(NS(=O)(=O)Cc4ccccc4)cc4ccccc34)c2c1 [Compound 370, 6-(aminomethyl)-1-((3-((phenylmethyl)sulfonamido)naphthalen-1-yl)methyl)-1H-indole-2-carboxylic acid] | –
6.30 to 7.00 | – | CCOC(=O)c1cc2ccc(CN)nc2n1Cc1cc(NS(=O)(=O)Cc2cccs2)cc2ccccc12 [Compound 154, ethyl 6-(aminomethyl)-1-({3-[(thiophen-2-yl)-methanesulfonamido]-naphthalen-1-yl}methyl)-1H-pyrrolo[2,3-b]pyr-idine-2-carboxylate] | –
≥ 7.00 | – | CN1CCC(COC(=O)c2cc3ccc(CN)nc3n2Cc2cc(NS(=O)(=O)Cc3ccccc3)cc3ccccc23)CC1 [Compound 17, (1-methylpiperidin-4-yl)methyl 6-(amino-methyl)-1-{[3-(phenyl-methanesulfonamido)-naphthalen-1-yl]methyl}-1H-pyrrolo[2,3-b]pyr-idine-2-carboxylate] | –
– | ≥ 7.00 | NCc1ccc2cc(-c3nnc(N)o3)n(Cc3cc(NS(=O)(=O)Cc4ccccc4)cc4ccccc34)c2n1 [Compound 348, N-(4-{[2-(5-amino-1,3,4-oxadiazol-2-yl)-6-(amino-methyl)-1H-pyrrolo[2,3-b]pyridin-1-yl]methyl}-naphthalen-2-yl)-1-phen-ylmethanesulfonamide] | –
≥ 7.00 | – | NCc1ccc2cc(C(=O)OCCN3CCNCC3)n(Cc3cc(NS(=O)(=O)Cc4ccccc4)cc4ccccc34)c2n1 [Compound 33, 2-(piperazin-1-yl)ethyl 6-(aminomethyl)-1-{[3-(phenylmethanesulfon-amido)naphthalen-1-yl]-methyl}-1H-pyrrolo[2,3-b]pyridine-2-carboxylate] | –
– | 6.30 to 7.00 | NCc1ccc2cc(C(=O)O)n(Cc3cc(NS(=O)(=O)Cc4ccccc4C(F)(F)F)cc4ccccc34)c2n1 [Compound 225, 6-(aminomethyl)-1-[(3-{[2-(trifluoromethyl)-phenyl]methanesulfon-amido}naphthalen-1-yl)methyl]-1H-pyrrolo-[2,3-b]pyridine-2-car-boxylic acid] | –
– | ≥ 7.00 | NCc1ccc2cc(C(N)=O)n(Cc3cc(NS(=O)(=O)CC[C@@H]4CCCN4)cc4ccccc34)c2n1 [Compound 213, 6-(aminomethyl)-1-[(3-{2-[(2S)-pyrrolidin-2-yl]ethanesulfonamido}-naphthalen-1-yl)methyl]-1H-pyrrolo[2,3-b]pyr-idine-2-carboxamide] | –
≥ 7.00 | – | NCc1ccc2cc(C(=O)OCCN3CCOCC3)n(Cc3cc(NS(=O)(=O)Cc4cccs4)cc4ccccc34)c2n1 [Compound 151, 2-(morpholin-4-yl)ethyl 6-(aminomethyl)-1-({3-[(thiophen-2-yl)methane-sulfonamido]naphthalen-1-yl}methyl)-1H-pyr-rolo[2,3-b]pyridine-2-carboxylate] | –
– | – | CN1CCC(CCOC(=O)c2cc3ccc(CN)nc3n2Cc2cc(NS(=O)(=O)Cc3ccccc3)c3ccccc3c2)CC1 [Compound 2.12] | pKi [3]: 6.30 to 7.00

SMILES | pKi [1] | pKi [2] | further results
CC(C)(C)OC(=O)N1CCOC[C@@H]1CS(=O)(=O)Nc1cc(Cn2c(C(=O)O)cc3ccc(CN)nc32)c2ccccc2c1 (racemic) [Compound 277, 6-(aminomethyl)-1-{[3-({4-[(tert-butoxy)car-bonyl]morpholin-3-yl}-methanesulfonamido)-naphthalen-1-yl]methyl}-1H-pyrrolo[2,3-b]pyr-idine-2-carboxylic acid] | – | 5.52 to 6.30 | –
